Measured values taken from PubChem BioAssay AID256 (DTP/NCI, 2004).
“And” between values parts separate entries of the source, which are not always exact repeats. Equal entries are not always repeated. Toxic doses and inconclusive results are not listed.

Tested on: CD2F1 mice, L1210 leukemia ip, survival T/C
Assay: NCI In Vivo Anticancer Drug Screen. Data for tumor model L1210 Leukemia (intraperitoneal) in CD2F1 (CDF1) mice
Conditions: endpoint: mean survival time, higher = longer survival
Summary of the method: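 Vehicle-treated tumor-bearing mice served as controls (C) for compound-treated mice (T). Reported figure is T divided by C.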

[1] = dose: 50.0 mg/kg/injection, schedule: Q01DX009 (ip), vehicle: saline with Tween-80
[2] = dose: 100.0 mg/kg/injection, schedule: Q01DX009 (ip), vehicle: saline with Tween-80
[3] = dose: 100.0 mg/kg/injection, schedule: Q04DX003 (ip), vehicle: saline with Tween-80
[4] = dose: 200.0 mg/kg/injection, schedule: Q01DX009 (ip), vehicle: saline with Tween-80
[5] = dose: 200.0 mg/kg/injection, schedule: Q04DX003 (ip), vehicle: saline with Tween-80
[6] = dose: 50.0 mg/kg/injection, schedule: Q01DX001 (ip), vehicle: other
[7] = dose: 100.0 mg/kg/injection, schedule: Q01DX001 (ip), vehicle: saline with Tween-80
[8] = dose: 200.0 mg/kg/injection, schedule: Q01DX001 (ip), vehicle: saline with Tween-80
[9] = dose: 400.0 mg/kg/injection, schedule: Q01DX001 (ip), vehicle: saline with Tween-80
[10] = dose: 100.0 mg/kg/injection, schedule: Q04DX002 (ip), vehicle: saline with Tween-80
[11] = dose: 400.0 mg/kg/injection, schedule: Q01DX009 (ip), vehicle: saline with Tween-80
[12] = dose: 200.0 mg/kg/injection, schedule: Q04DX002 (ip), vehicle: saline with Tween-80
[13] = dose: 400.0 mg/kg/injection, schedule: Q04DX002 (ip), vehicle: saline with Tween-80
[14] = dose: 100.0 mg/kg/injection, schedule: Q01DX001 (ip), vehicle: saline
[15] = dose: 400.0 mg/kg/injection, schedule: Q04DX003 (ip), vehicle: saline with Tween-80
[16] = dose: 100.0 mg/kg/injection, schedule: Q01DX009 (ip), vehicle: saline
[17] = dose: 200.0 mg/kg/injection, schedule: Q01DX009 (ip), vehicle: saline
[18] = dose: 400.0 mg/kg/injection, schedule: Q01DX009 (ip), vehicle: saline
[19] = dose: 100.0 mg/kg/injection, schedule: Q04DX003 (ip), vehicle: Klucel (hydroxypropylcellulose) (HPC)
[20] = dose: 200.0 mg/kg/injection, schedule: Q04DX003 (ip), vehicle: Klucel (hydroxypropylcellulose) (HPC)

`C[C@@H](C[P+](c1ccccc1)(c1ccccc1)c1ccccc1)[C@](OC(=O)c1ccccc1)(C(=O)c1ccccc1)c1ccccc1` was tested, and the T/C (dose: 6.25 mg/kg/injection, schedule: Q01DX001 (ip), vehicle: saline with Tween-80) was 100 % of control, the T/C (dose: 12.5 mg/kg/injection, schedule: Q01DX001 (ip), vehicle: saline with Tween-80) was 105 % of control and the T/C (dose: 25.0 mg/kg/injection, schedule: Q01DX001 (ip), vehicle: saline with Tween-80) was 109 % of control.

With `Clc1cc(Cl)c(C[N+]23CN4CN(CN(C4)C2)C3)cc1Cl` the T/C (dose: 12.5 mg/kg/injection, schedule: Q01DX009 (ip), vehicle: saline with Tween-80) was 104 % of control, the T/C (dose: 25.0 mg/kg/injection, schedule: Q01DX009 (ip), vehicle: saline with Tween-80) was 98 % of control and the T/C [1] was 92 % of control and 109 % of control. For the same compound, the T/C [2] was 104 % of control and 112 % of control, the T/C [3] was 106 % of control and the T/C [4] was 108 % of control. The T/C [5] was 104 % of control.

With `O=C(O)CC1C=CCC1` (stereo not drawn) the T/C (dose: 6.25 mg/kg/injection, schedule: Q04DX003 (ip), vehicle: saline) was 102 % of control, the T/C (dose: 12.5 mg/kg/injection, schedule: Q04DX003 (ip), vehicle: saline) was 97 % of control and the T/C (dose: 25.0 mg/kg/injection, schedule: Q04DX003 (ip), vehicle: saline) was 97 % of control. For the same compound, the T/C [3] was 98 % of control.

In the case of `CCC[CH2][Sn]1([CH2]CCC)[O]C2C(CO)OC(n3ccc4c(N)ncnc43)C2[O]1` (stereo not drawn), the T/C (dose: 0.39 mg/kg/injection, schedule: Q01DX005 (ip), vehicle: water) is reported as 97 % of control, the T/C (dose: 0.78 mg/kg/injection, schedule: Q01DX005 (ip), vehicle: water) is reported as 103 % of control and the T/C (dose: 1.56 mg/kg/injection, schedule: Q01DX005 (ip), vehicle: other) is reported as 111 % of control. For the same compound, the T/C (dose: 1.56 mg/kg/injection, schedule: Q01DX005 (ip), vehicle: water) was 90 % of control, the T/C (dose: 3.13 mg/kg/injection, schedule: Q01DX005 (ip), vehicle: other) was 95 % of control and the T/C (dose: 3.13 mg/kg/injection, schedule: Q01DX005 (ip), vehicle: water) was 106 % of control.

In the case of `COc1cc(C=Nc2cccc(F)c2)ccc1N(CCCl)CCCl`, the T/C (dose: 16.0 mg/kg/injection, schedule: Q01DX015 (ip), vehicle: saline) is reported as 157 % of control, the T/C (dose: 25.0 mg/kg/injection, schedule: Q01DX001 (ip), vehicle: other) is reported as 121 % of control and the T/C [6] is reported as 119 % of control.

For `CCOC(=O)C(=CC(C(=O)OCC)C(=O)OCC)C(=O)OCC`, the T/C [7] was 93 % of control, the T/C [8] was 104 % of control and the T/C [9] was 96 % of control.

`S=c1nccc[nH]1` was tested, and the T/C [10] was 105 % of control.

In the case of `O=S(=O)(O)c1ccc(Nc2ccccc2)cc1`, the T/C [2] is reported as 105 % of control, the T/C (dose: 100.0 mg/kg/injection, schedule: Q04DX003 (ip), vehicle: saline) is reported as 104 % of control and the T/C [4] is reported as 97 % of control. For the same compound, the T/C (dose: 200.0 mg/kg/injection, schedule: Q04DX003 (ip), vehicle: saline) was 106 % of control, the T/C [11] was 103 % of control and the T/C (dose: 400.0 mg/kg/injection, schedule: Q04DX003 (ip), vehicle: saline) was 100 % of control.

With `Cc1ccc(S(=O)(=O)NC(=O)OCCc2c3ccccc3nc3ccccc23)cc1` the T/C (dose: 100.0 mg/kg/injection, schedule: Q04DX002 (ip), vehicle: other) was 97 % of control, the T/C [10] was 97 % of control and the T/C (dose: 200.0 mg/kg/injection, schedule: Q04DX002 (ip), vehicle: other) was 97 % of control. The T/C [12] was 109 % of control.

With `COC(=O)c1cc(Cl)c(C(=O)OC)cc1Cl` the T/C (dose: 100.0 mg/kg/injection, schedule: Q01DX009 (ip), vehicle: Klucel (hydroxypropylcellulose) (HPC)) was 92 % of control, the T/C (dose: 200.0 mg/kg/injection, schedule: Q01DX009 (ip), vehicle: Klucel (hydroxypropylcellulose) (HPC)) was 97 % of control and the T/C (dose: 400.0 mg/kg/injection, schedule: Q01DX009 (ip), vehicle: Klucel (hydroxypropylcellulose) (HPC)) was 102 % of control.

`OC1C(I)CC(Cl)C2CCC[N-]C12.OC1C(I)CC(Cl)C2CCC[N-]C12.[Cu+2]` (stereo not drawn) was tested, and the T/C [10] was 96 % of control, the T/C [12] was 92 % of control and the T/C [13] was 88 % of control.

`O=C1c2ccccc2C(=O)N1CC(O)CN1C(=O)c2ccccc2C1=O` was tested, and the T/C [6] was 98 % of control, the T/C (dose: 100.0 mg/kg/injection, schedule: Q01DX001 (ip), vehicle: other) was 100 % of control and the T/C (dose: 200.0 mg/kg/injection, schedule: Q01DX001 (ip), vehicle: other) was 93 % of control. The T/C (dose: 400.0 mg/kg/injection, schedule: Q01DX001 (ip), vehicle: other) was 94 % of control.

`c1ccc2c(-c3nnn4ccccc34)cccc2c1` was tested, and the T/C [14] was 89 % of control, the T/C (dose: 200.0 mg/kg/injection, schedule: Q01DX001 (ip), vehicle: saline) was 106 % of control and the T/C (dose: 400.0 mg/kg/injection, schedule: Q01DX001 (ip), vehicle: saline) was 97 % of control.

With `O=C1CC(c2ccc([N+](=O)[O-])cc2)=Nc2ccccc2N1` the T/C [2] was 102 % of control, the T/C [4] was 101 % of control and the T/C [11] was 96 % of control.

`O=[N+]([O-])c1cc(Br)cc(Br)c1[N+](=O)[O-]` was tested, and the T/C [7] was 97 % of control, the T/C [2] was 102 % of control and the T/C [8] was 89 % of control. For the same compound, the T/C [4] was 102 % of control, the T/C [9] was 95 % of control and the T/C [11] was 98 % of control.

`CC(=O)Nc1ccc(NC(=O)Nc2ccc(C)c([N+](=O)[O-])c2)cc1` was tested, and the T/C [1] was 98 % of control, the T/C [2] was 98 % of control and the T/C [4] was 98 % of control.

`CC(C)(O)CCC(C)(C)O` was tested, and the T/C [3] was 106 % of control, the T/C [5] was 101 % of control and the T/C [15] was 103 % of control.

For `Cc1nc2[nH]c(=S)[nH]c(=O)c2nc1C`, the T/C [3] was 97 % of control, the T/C [5] was 90 % of control and the T/C [15] was 90 % of control.

With `CC1=N/C(=C/c2ccccc2)C(=O)O1` the T/C [2] was 97 % of control, the T/C [4] was 98 % of control and the T/C [11] was 88 % of control.

With `CN1CCC(c2ccccc2)(c2ccccc2)OC1c1ccccc1` (stereo not drawn) the T/C [3] was 101 % of control, the T/C [5] was 100 % of control and the T/C [15] was 94 % of control.

For `COC(=O)c1ccc(OC)c(I)c1`, the T/C [10] was 98 % of control, the T/C [12] was 123 % of control and the T/C [13] was 98 % of control.

`NC(=O)N/N=C1\CC2C=CCC12` (stereo not drawn) was tested, and the T/C [2] was 95 % of control and the T/C [4] was 98 % of control.

With `CO/C(=N\C(=O)NC1CC(OC(=O)c2ccc(C)cc2)C(COC(=O)c2ccc(C)cc2)O1)NC(=O)c1ccc(C)cc1` (stereo not drawn) the T/C [3] was 90 % of control.

For `NC(CSC1(c2cccc3ccccc23)c2ccccc2-c2ccccc21)C(=O)O` (stereo not drawn), the T/C (dose: 25.0 mg/kg/injection, schedule: Q01DX009 (ip), vehicle: saline) was 94 % of control, the T/C (dose: 50.0 mg/kg/injection, schedule: Q01DX009 (ip), vehicle: saline) was 96 % of control and the T/C [16] was 96 % of control. The T/C [17] was 94 % of control and the T/C [18] was 94 % of control.

`Cc1nc(NN)c([N+](=O)[O-])c(NN)n1` was tested, and the T/C [19] was 89 % of control, the T/C [20] was 95 % of control and the T/C (dose: 400.0 mg/kg/injection, schedule: Q04DX003 (ip), vehicle: Klucel (hydroxypropylcellulose) (HPC)) was 102 % of control.

With `CCN(CC)CC(C)Nc1c2ccc(Cl)cc2nc2ccc(OC)cc12` (stereo not drawn) the T/C [10] was 94 % of control, the T/C [12] was 91 % of control and the T/C [13] was 97 % of control.

`O=C(O)CC(O)C(=O)O.[Fe]` (stereo not drawn) was tested, and the T/C [14] was 93 % of control.

With `Nc1ncnc2sc3c(c12)CCCC3` the T/C (dose: 50.0 mg/kg/injection, schedule: Q04DX003 (ip), vehicle: Klucel (hydroxypropylcellulose) (HPC)) was 96 % of control, the T/C [19] was 100 % of control and the T/C [20] was 91 % of control.

For `CCN(CC)CCNc1nc(-c2cc(C(F)(F)F)cc(C(F)(F)F)c2)nc(C(Cl)(Cl)Cl)n1`, the T/C (dose: 100.0 mg/kg/injection, schedule: Q01DX005 (ip), vehicle: saline) was 100 % of control, the T/C [16] was 93 % of control and the T/C (dose: 200.0 mg/kg/injection, schedule: Q01DX005 (ip), vehicle: saline) was 103 % of control. For the same compound, the T/C [17] was 93 % of control, the T/C (dose: 400.0 mg/kg/injection, schedule: Q01DX005 (ip), vehicle: saline) was 95 % of control and the T/C [18] was 93 % of control.

In the case of `CN(C)S(=O)(=O)c1ccccc1C1(O)c2ccccc2-c2ccccc21`, the T/C [1] is reported as 87 % of control, the T/C [2] is reported as 87 % of control and the T/C [3] is reported as 93 % of control. For the same compound, the T/C [5] was 86 % of control.

In the case of `CN(C)C(=O)N1CC1`, the T/C [3] is reported as 98 % of control, the T/C [5] is reported as 98 % of control and the T/C [15] is reported as 106 % of control.
